According to ChEMBL document CHEMBL1150977, “A quantitative analysis of kinase inhibitor selectivity” (Nat Biotechnol, 2008):
pKd: −log10 of the molar value.

Molecular target: Mitogen-activated protein kinase 8 (Homo sapiens, UniProt P45983)
Sequence (P45983 whole entry): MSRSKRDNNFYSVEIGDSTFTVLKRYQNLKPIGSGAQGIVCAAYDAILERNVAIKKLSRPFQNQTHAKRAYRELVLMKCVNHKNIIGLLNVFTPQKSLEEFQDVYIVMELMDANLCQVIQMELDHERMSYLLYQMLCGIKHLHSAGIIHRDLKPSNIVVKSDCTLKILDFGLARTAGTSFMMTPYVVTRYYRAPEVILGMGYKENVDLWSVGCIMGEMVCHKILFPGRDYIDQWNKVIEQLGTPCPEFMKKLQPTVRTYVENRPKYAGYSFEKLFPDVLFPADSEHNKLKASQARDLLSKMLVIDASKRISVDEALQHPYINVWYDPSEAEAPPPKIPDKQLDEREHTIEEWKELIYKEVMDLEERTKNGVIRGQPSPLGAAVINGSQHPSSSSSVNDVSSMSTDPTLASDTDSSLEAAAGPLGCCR

SMILES | pKd
CCOc1cc2ncc(C#N)c(Nc3ccc(F)c(Cl)c3)c2cc1NC(=O)/C=C/CN(C)C [PELITINIB] | < 5.00
Oc1ccc(-c2nc(-c3ccncc3)c(-c3ccc(F)cc3)[nH]2)cc1 [SB-202190] | 5.62
COCC(=O)NC/C=C/c1ccc2ncnc(Nc3ccc(Oc4ccc(C)nc4)c(C)c3)c2c1 [CP-724714] | < 5.00
NC(=O)c1ccc(-c2nc(-c3ccc4c(c3)OCO4)c(-c3ccccn3)[nH]2)cc1 [SB-431542] | < 5.00

Molecular target: Vascular endothelial growth factor receptor 3 (Homo sapiens, UniProt P35916)
Sequence (P35916 whole entry): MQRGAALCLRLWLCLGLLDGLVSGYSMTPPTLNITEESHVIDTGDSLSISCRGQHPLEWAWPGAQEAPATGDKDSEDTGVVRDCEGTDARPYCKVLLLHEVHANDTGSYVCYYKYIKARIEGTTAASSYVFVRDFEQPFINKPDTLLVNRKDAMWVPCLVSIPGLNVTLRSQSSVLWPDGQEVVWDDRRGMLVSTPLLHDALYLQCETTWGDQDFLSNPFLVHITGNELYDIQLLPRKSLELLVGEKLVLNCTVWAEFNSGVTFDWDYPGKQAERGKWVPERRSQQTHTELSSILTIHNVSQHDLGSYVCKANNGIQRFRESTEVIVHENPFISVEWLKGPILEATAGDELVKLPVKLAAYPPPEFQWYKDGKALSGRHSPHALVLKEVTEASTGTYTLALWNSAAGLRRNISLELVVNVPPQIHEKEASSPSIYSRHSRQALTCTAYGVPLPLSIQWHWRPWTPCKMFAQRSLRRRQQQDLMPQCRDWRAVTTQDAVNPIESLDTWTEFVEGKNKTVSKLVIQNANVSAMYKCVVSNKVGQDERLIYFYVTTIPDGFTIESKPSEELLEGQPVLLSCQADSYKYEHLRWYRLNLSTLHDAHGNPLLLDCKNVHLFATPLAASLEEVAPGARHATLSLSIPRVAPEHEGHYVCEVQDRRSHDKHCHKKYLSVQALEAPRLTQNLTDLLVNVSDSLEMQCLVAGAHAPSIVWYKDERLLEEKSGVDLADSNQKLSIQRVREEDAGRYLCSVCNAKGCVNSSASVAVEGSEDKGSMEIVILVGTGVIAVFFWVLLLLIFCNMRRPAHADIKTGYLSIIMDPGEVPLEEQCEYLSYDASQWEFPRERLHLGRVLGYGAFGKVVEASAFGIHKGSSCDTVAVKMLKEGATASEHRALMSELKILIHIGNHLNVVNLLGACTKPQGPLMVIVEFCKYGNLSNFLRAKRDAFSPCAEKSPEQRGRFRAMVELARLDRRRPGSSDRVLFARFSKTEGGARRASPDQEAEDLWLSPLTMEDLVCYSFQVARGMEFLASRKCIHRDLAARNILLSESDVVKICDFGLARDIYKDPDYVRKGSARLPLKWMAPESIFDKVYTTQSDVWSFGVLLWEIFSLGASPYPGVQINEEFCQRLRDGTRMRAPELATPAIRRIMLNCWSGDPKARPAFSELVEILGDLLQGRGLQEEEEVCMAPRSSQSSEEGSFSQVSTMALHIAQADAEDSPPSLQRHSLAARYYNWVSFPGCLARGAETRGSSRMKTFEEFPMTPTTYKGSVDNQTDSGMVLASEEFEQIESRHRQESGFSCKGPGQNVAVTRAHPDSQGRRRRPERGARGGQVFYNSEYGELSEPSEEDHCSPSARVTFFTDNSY

SMILES | pKd
CCOc1cc2ncc(C#N)c(Nc3ccc(F)c(Cl)c3)c2cc1NC(=O)/C=C/CN(C)C [PELITINIB] | < 5.00
Oc1ccc(-c2nc(-c3ccncc3)c(-c3ccc(F)cc3)[nH]2)cc1 [SB-202190] | < 5.00
COCC(=O)NC/C=C/c1ccc2ncnc(Nc3ccc(Oc4ccc(C)nc4)c(C)c3)c2c1 [CP-724714] | < 5.00
NC(=O)c1ccc(-c2nc(-c3ccc4c(c3)OCO4)c(-c3ccccn3)[nH]2)cc1 [SB-431542] | < 5.00

Molecular target: Tyrosine-protein kinase CSK (Homo sapiens, UniProt P41240)
Sequence (P41240 whole entry): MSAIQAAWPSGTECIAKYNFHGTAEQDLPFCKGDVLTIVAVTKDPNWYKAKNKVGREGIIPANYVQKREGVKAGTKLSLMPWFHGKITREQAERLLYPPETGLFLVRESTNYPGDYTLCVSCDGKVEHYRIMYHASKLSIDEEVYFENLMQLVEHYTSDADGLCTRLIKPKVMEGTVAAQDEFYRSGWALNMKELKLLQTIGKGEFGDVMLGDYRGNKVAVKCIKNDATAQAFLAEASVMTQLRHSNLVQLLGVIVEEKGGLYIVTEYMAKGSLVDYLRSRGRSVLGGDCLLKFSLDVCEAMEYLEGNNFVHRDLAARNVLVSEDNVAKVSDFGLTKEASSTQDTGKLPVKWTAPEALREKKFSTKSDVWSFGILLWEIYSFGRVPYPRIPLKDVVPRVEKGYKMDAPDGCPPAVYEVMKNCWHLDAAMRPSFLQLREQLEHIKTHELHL

SMILES | pKd
Nc1nc(Nc2ccc(S(N)(=O)=O)cc2)nn1C(=O)c1c(F)cccc1F [JNJ-7706621] | < 5.00
Oc1ccc(-c2nc(-c3ccncc3)c(-c3ccc(F)cc3)[nH]2)cc1 [SB-202190] | < 5.00
COCC(=O)NC/C=C/c1ccc2ncnc(Nc3ccc(Oc4ccc(C)nc4)c(C)c3)c2c1 [CP-724714] | < 5.00
NC(=O)c1ccc(-c2nc(-c3ccc4c(c3)OCO4)c(-c3ccccn3)[nH]2)cc1 [SB-431542] | < 5.00

Molecular target: Mitogen-activated protein kinase 10 (Homo sapiens, UniProt P53779)

SMILES | pKd
CCOc1cc2ncc(C#N)c(Nc3ccc(F)c(Cl)c3)c2cc1NC(=O)/C=C/CN(C)C [PELITINIB] | < 5.00
Oc1ccc(-c2nc(-c3ccncc3)c(-c3ccc(F)cc3)[nH]2)cc1 [SB-202190] | 7.38
COCC(=O)NC/C=C/c1ccc2ncnc(Nc3ccc(Oc4ccc(C)nc4)c(C)c3)c2c1 [CP-724714] | < 5.00
NC(=O)c1ccc(-c2nc(-c3ccc4c(c3)OCO4)c(-c3ccccn3)[nH]2)cc1 [SB-431542] | < 5.00

Molecular target: Mitogen-activated protein kinase kinase kinase 9 (Homo sapiens, UniProt P80192)

SMILES | pKd
CCOc1cc2ncc(C#N)c(Nc3ccc(F)c(Cl)c3)c2cc1NC(=O)/C=C/CN(C)C [PELITINIB] | < 5.00
Nc1nc(Nc2ccc(S(N)(=O)=O)cc2)nn1C(=O)c1c(F)cccc1F [JNJ-7706621] | 5.44
Oc1ccc(-c2nc(-c3ccncc3)c(-c3ccc(F)cc3)[nH]2)cc1 [SB-202190] | < 5.00
COCC(=O)NC/C=C/c1ccc2ncnc(Nc3ccc(Oc4ccc(C)nc4)c(C)c3)c2c1 [CP-724714] | < 5.00
NC(=O)c1ccc(-c2nc(-c3ccc4c(c3)OCO4)c(-c3ccccn3)[nH]2)cc1 [SB-431542] | < 5.00

Molecular target: Serine/threonine-protein kinase pim-1 (Homo sapiens, UniProt P11309)
Sequence (P11309 whole entry): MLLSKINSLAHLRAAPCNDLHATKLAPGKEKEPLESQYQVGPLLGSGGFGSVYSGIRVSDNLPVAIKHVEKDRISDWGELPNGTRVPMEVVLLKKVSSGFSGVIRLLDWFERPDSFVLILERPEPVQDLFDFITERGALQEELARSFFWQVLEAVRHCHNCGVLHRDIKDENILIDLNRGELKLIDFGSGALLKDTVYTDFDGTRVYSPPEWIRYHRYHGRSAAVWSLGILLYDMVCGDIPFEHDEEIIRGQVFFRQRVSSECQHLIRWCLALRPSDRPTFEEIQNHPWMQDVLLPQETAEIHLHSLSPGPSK

SMILES | pKd
CCOc1cc2ncc(C#N)c(Nc3ccc(F)c(Cl)c3)c2cc1NC(=O)/C=C/CN(C)C [PELITINIB] | < 5.00
Oc1ccc(-c2nc(-c3ccncc3)c(-c3ccc(F)cc3)[nH]2)cc1 [SB-202190] | < 5.00
COCC(=O)NC/C=C/c1ccc2ncnc(Nc3ccc(Oc4ccc(C)nc4)c(C)c3)c2c1 [CP-724714] | < 5.00
NC(=O)c1ccc(-c2nc(-c3ccc4c(c3)OCO4)c(-c3ccccn3)[nH]2)cc1 [SB-431542] | < 5.00

Molecular target: Serine/threonine-protein kinase N2 (Homo sapiens, UniProt Q16513)
Sequence (Q16513 whole entry): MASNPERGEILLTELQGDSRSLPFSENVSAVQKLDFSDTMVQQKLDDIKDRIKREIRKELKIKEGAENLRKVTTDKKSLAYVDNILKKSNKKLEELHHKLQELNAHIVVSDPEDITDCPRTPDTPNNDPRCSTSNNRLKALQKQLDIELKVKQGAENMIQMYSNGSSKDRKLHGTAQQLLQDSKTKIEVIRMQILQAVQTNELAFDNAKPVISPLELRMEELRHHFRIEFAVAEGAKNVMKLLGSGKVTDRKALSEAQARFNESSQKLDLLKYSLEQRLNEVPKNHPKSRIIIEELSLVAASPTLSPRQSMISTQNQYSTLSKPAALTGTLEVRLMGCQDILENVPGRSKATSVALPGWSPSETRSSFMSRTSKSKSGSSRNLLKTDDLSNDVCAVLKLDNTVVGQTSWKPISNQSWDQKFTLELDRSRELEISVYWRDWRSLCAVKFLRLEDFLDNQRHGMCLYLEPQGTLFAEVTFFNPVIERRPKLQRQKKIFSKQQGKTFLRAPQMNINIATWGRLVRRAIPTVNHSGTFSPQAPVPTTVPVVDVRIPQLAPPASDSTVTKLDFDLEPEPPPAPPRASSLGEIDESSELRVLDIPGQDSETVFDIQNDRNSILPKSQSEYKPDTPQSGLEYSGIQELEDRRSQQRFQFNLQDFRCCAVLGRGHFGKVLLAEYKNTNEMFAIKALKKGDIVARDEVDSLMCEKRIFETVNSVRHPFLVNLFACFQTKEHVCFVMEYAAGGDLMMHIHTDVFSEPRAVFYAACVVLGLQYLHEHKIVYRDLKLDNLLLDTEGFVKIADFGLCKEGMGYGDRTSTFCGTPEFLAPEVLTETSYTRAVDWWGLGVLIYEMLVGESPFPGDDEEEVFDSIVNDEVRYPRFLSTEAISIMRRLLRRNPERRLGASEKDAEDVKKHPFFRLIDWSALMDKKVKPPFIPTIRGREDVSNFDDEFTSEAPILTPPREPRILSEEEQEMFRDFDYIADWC

SMILES | pKd
CCOc1cc2ncc(C#N)c(Nc3ccc(F)c(Cl)c3)c2cc1NC(=O)/C=C/CN(C)C [PELITINIB] | < 5.00
Oc1ccc(-c2nc(-c3ccncc3)c(-c3ccc(F)cc3)[nH]2)cc1 [SB-202190] | < 5.00
COCC(=O)NC/C=C/c1ccc2ncnc(Nc3ccc(Oc4ccc(C)nc4)c(C)c3)c2c1 [CP-724714] | < 5.00
NC(=O)c1ccc(-c2nc(-c3ccc4c(c3)OCO4)c(-c3ccccn3)[nH]2)cc1 [SB-431542] | < 5.00

Molecular target: Tyrosine-protein kinase BTK (Homo sapiens, UniProt Q06187)
Sequence (Q06187 whole entry): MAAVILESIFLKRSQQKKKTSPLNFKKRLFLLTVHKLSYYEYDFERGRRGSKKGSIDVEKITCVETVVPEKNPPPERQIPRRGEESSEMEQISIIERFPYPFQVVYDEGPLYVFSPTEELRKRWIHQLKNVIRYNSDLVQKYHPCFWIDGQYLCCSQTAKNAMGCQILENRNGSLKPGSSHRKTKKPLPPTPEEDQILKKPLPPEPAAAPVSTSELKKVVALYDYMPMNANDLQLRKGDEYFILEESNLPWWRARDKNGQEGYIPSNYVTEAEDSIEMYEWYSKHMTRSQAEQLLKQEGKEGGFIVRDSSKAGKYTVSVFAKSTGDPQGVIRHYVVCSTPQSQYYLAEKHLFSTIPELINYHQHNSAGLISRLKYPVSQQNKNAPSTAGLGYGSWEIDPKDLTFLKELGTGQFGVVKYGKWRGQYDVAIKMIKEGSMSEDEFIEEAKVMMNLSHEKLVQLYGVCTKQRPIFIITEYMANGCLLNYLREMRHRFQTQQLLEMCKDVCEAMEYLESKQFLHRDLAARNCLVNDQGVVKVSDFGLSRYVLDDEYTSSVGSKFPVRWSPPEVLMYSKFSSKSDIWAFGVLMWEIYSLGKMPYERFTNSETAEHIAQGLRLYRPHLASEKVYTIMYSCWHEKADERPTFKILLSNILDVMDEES

SMILES | pKd
CCOc1cc2ncc(C#N)c(Nc3ccc(F)c(Cl)c3)c2cc1NC(=O)/C=C/CN(C)C [PELITINIB] | 5.31
Oc1ccc(-c2nc(-c3ccncc3)c(-c3ccc(F)cc3)[nH]2)cc1 [SB-202190] | < 5.00
COCC(=O)NC/C=C/c1ccc2ncnc(Nc3ccc(Oc4ccc(C)nc4)c(C)c3)c2c1 [CP-724714] | < 5.00
NC(=O)c1ccc(-c2nc(-c3ccc4c(c3)OCO4)c(-c3ccccn3)[nH]2)cc1 [SB-431542] | < 5.00

Molecular target: Mitogen-activated protein kinase kinase kinase kinase 5 (Homo sapiens, UniProt Q9Y4K4)
Sequence (Q9Y4K4 whole entry): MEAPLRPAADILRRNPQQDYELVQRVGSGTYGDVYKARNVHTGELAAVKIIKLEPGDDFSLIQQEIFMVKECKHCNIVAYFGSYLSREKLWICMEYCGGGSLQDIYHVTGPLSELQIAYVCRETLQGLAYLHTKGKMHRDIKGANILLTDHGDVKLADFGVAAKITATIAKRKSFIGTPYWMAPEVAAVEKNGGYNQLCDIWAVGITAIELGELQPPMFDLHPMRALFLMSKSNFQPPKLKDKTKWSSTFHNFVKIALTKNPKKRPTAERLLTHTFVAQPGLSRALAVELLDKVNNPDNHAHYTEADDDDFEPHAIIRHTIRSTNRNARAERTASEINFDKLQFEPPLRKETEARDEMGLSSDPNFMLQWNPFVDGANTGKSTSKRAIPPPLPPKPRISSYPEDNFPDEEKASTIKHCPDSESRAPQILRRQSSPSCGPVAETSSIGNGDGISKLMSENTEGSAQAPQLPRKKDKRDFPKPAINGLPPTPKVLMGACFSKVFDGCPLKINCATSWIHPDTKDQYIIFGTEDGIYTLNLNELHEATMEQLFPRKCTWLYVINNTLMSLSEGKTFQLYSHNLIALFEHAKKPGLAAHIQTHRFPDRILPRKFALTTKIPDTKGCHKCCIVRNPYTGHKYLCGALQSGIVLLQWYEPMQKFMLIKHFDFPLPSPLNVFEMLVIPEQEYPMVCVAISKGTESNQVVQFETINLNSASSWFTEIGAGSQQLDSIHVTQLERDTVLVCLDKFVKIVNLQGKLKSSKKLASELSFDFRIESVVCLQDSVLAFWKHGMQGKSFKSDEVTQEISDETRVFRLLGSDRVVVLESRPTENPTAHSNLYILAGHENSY

SMILES | pKd
CCOc1cc2ncc(C#N)c(Nc3ccc(F)c(Cl)c3)c2cc1NC(=O)/C=C/CN(C)C [PELITINIB] | 8.00
Oc1ccc(-c2nc(-c3ccncc3)c(-c3ccc(F)cc3)[nH]2)cc1 [SB-202190] | < 5.00
COCC(=O)NC/C=C/c1ccc2ncnc(Nc3ccc(Oc4ccc(C)nc4)c(C)c3)c2c1 [CP-724714] | < 5.00
NC(=O)c1ccc(-c2nc(-c3ccc4c(c3)OCO4)c(-c3ccccn3)[nH]2)cc1 [SB-431542] | < 5.00

Molecular target: T1, NUAK family SNF1-like kinase 2 (Homo sapiens, UniProt Q9H093)
T1 sequence (Q9H093 whole entry): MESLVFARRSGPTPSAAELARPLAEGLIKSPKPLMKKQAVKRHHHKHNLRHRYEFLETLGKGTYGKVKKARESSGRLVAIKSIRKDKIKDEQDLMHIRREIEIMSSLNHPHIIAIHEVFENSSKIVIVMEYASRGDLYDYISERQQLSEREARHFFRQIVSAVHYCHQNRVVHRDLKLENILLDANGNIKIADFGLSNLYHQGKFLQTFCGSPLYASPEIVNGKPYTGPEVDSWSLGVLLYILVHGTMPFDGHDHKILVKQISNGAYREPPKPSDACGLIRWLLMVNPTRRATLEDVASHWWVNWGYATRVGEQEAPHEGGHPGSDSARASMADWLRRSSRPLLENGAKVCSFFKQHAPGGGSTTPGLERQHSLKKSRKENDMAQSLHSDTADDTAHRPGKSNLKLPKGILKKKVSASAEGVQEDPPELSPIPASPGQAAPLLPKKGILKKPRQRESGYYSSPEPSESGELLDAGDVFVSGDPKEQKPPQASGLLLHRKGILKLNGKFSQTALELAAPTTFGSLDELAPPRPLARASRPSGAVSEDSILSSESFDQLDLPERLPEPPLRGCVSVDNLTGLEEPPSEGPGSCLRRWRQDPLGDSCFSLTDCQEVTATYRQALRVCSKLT

SMILES | pKd
CCOc1cc2ncc(C#N)c(Nc3ccc(F)c(Cl)c3)c2cc1NC(=O)/C=C/CN(C)C [PELITINIB] | 5.57
Nc1nc(Nc2ccc(S(N)(=O)=O)cc2)nn1C(=O)c1c(F)cccc1F [JNJ-7706621] | 7.59
Oc1ccc(-c2nc(-c3ccncc3)c(-c3ccc(F)cc3)[nH]2)cc1 [SB-202190] | < 5.00
COCC(=O)NC/C=C/c1ccc2ncnc(Nc3ccc(Oc4ccc(C)nc4)c(C)c3)c2c1 [CP-724714] | < 5.00
NC(=O)c1ccc(-c2nc(-c3ccc4c(c3)OCO4)c(-c3ccccn3)[nH]2)cc1 [SB-431542] | < 5.00

Molecular target: T2, Serine/threonine-protein kinase 17A (Homo sapiens, UniProt Q9UEE5)
T2 sequence (Q9UEE5 whole entry): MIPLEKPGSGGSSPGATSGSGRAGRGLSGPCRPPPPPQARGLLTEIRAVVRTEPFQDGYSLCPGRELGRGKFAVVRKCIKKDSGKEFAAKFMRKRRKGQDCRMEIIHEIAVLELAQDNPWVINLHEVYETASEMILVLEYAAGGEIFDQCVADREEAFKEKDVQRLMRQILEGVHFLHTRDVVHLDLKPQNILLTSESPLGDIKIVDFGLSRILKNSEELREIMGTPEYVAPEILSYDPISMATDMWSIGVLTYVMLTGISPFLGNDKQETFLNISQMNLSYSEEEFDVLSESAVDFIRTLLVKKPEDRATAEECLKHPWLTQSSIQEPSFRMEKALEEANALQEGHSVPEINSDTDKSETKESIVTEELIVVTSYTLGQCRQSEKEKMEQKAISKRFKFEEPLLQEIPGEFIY

SMILES | pKd
Oc1ccc(-c2nc(-c3ccncc3)c(-c3ccc(F)cc3)[nH]2)cc1 [SB-202190] | < 5.00
COCC(=O)NC/C=C/c1ccc2ncnc(Nc3ccc(Oc4ccc(C)nc4)c(C)c3)c2c1 [CP-724714] | < 5.00
NC(=O)c1ccc(-c2nc(-c3ccc4c(c3)OCO4)c(-c3ccccn3)[nH]2)cc1 [SB-431542] | < 5.00

Molecular target: Insulin-like growth factor 1 receptor (Homo sapiens, UniProt P08069)

SMILES | pKd
CCOc1cc2ncc(C#N)c(Nc3ccc(F)c(Cl)c3)c2cc1NC(=O)/C=C/CN(C)C [PELITINIB] | < 5.00
Oc1ccc(-c2nc(-c3ccncc3)c(-c3ccc(F)cc3)[nH]2)cc1 [SB-202190] | < 5.00
COCC(=O)NC/C=C/c1ccc2ncnc(Nc3ccc(Oc4ccc(C)nc4)c(C)c3)c2c1 [CP-724714] | < 5.00
NC(=O)c1ccc(-c2nc(-c3ccc4c(c3)OCO4)c(-c3ccccn3)[nH]2)cc1 [SB-431542] | < 5.00

Molecular target: Tyrosine-protein kinase ABL1 (Homo sapiens, UniProt P00519, T315I)

SMILES | pKd
Oc1ccc(-c2nc(-c3ccncc3)c(-c3ccc(F)cc3)[nH]2)cc1 [SB-202190] | < 5.00
COCC(=O)NC/C=C/c1ccc2ncnc(Nc3ccc(Oc4ccc(C)nc4)c(C)c3)c2c1 [CP-724714] | < 5.00
NC(=O)c1ccc(-c2nc(-c3ccc4c(c3)OCO4)c(-c3ccccn3)[nH]2)cc1 [SB-431542] | < 5.00

Molecular target: T3, Serine/threonine-protein kinase RIO1 (Homo sapiens, UniProt Q9BRS2)
T3 sequence (Q9BRS2 whole entry): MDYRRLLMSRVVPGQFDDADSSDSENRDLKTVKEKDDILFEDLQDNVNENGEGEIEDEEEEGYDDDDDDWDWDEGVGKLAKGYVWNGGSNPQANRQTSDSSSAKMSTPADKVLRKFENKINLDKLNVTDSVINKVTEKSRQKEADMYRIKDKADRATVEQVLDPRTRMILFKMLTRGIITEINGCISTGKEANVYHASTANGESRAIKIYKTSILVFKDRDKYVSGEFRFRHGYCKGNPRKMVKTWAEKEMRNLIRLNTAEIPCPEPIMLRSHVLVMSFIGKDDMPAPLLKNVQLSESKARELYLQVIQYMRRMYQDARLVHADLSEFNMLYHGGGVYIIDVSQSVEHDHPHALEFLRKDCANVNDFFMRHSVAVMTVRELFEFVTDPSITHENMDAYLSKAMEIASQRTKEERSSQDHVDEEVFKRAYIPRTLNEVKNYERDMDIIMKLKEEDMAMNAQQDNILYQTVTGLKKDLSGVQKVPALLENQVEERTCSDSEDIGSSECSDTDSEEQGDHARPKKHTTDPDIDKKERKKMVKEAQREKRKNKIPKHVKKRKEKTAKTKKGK

SMILES | pKd
CCOc1cc2ncc(C#N)c(Nc3ccc(F)c(Cl)c3)c2cc1NC(=O)/C=C/CN(C)C [PELITINIB] | < 5.00
Oc1ccc(-c2nc(-c3ccncc3)c(-c3ccc(F)cc3)[nH]2)cc1 [SB-202190] | < 5.00
COCC(=O)NC/C=C/c1ccc2ncnc(Nc3ccc(Oc4ccc(C)nc4)c(C)c3)c2c1 [CP-724714] | < 5.00
NC(=O)c1ccc(-c2nc(-c3ccc4c(c3)OCO4)c(-c3ccccn3)[nH]2)cc1 [SB-431542] | < 5.00
